System: gastrointestinal motility
Assay: Gastrointestinal transit (Evans Blue dye) in opioid induced constipation model
Type: in vivo, mice
Conditions: oral vehicle, loperamide 3 mg/kg subcutaneous, 30-minute period; vehicle/vehicle approximately 70%
Protocol: Gastrointestinal transit is measured in mice treated with the peripherally acting μ-opioid agonist loperamide to assess the ability of selected example compounds to restore gastrointestinal motility in a model of opioid induced constipation. Approximately eight-week old, female, CD1 […] are purchased from Envigo (Livermore, Calif.), are housed 4 per cage and acclimated for at least 48 hours before study initiation. Animals are fed standard laboratory rodent chow Harlan Teklad Global 2018 (Maddison, Wis.). […] 30 minutes later, animals are euthanized by carbon dioxide inhalation, and the length from the pylorus to cecum (whole length of the small intestine) and the length from the pylorus to the Evans Blue dye front are measured and recorded. For an individual animal, the length travelled by the Evans Blue dye front is divided by the length of the whole small intestine, measured from the pylorus to the cecum, and multiplied by 100, to provide the distance of the small intestine travelled by the dye as a percentage. […] The effect of example compounds on GIT motility in the presence of loperamide is calculated as the ability to restore vehicle/vehicle transit distance from the vehicle/loperamide transit, expressed as a percentage.

SMILES | distance of the small intestine travelled by the Evans Blue dye front
CN(C)C(=O)C(CCN1CCC(O)(c2ccc(Cl)cc2)CC1)(c1ccccc1)c1ccccc1 [loperamide] | ~25%

System: not given
Assay: not given
Conditions: human absorption data, from Ertl et al.; cited from earlier work

SMILES | % FA
CCN1CCCC1CNC(=O)c1cc(S(N)(=O)=O)ccc1OC (centres unmarked) [sulpiride] | 36%
C=CCOc1ccccc1OCC(O)CNC(C)C (centres unmarked) [oxprenolol] | 97%
O=C(O)c1cc(/N=N/c2ccc(O)c(C(=O)O)c2)ccc1O [olsalazine] | 2.3%
O=C(O)P(=O)(O)O [foscarnet] | 17%
CC(=O)Nc1ccc(OCC(O)CNC(C)C)cc1 (centres unmarked) [practolol] | 95%
OC[C@@H](O)[C@@H](O)[C@H](O)[C@H](O)CO [mannitol] | 26%
C=CCc1ccccc1OCC(O)CNC(C)C (centres unmarked) [alprenolol] | 96%
OC[C@H]1O[C@H](OC[C@H]2O[C@H](O[C@]3(CO)O[C@H](CO)[C@@H](O)[C@@H]3O)[C@H](O)[C@@H](O)[C@@H]2O)[C@H](O)[C@@H](O)[C@H]1O [raffinose] | 0.3%
O=C(O)c1cc(/N=N/c2ccc(S(=O)(=O)Nc3ccccn3)cc2)ccc1O [sulfasalazine] | 12%
NC[C@H]1CC[C@H](C(=O)O)CC1 [tranexamic acid] | 55%
Cc1ccccc1N1C(=O)c2cc(S(N)(=O)=O)c(Cl)cc2NC1C (centres unmarked) [metolazone] | 64%
OC[C@H]1O[C@@H](O[C@@H]2[C@@H](CO)OC(O)(CO)[C@H]2O)[C@H](O)[C@@H](O)[C@H]1O (mixture of isomers) [lactulose] | 0.6%
CC(C)NCC(O)COc1cccc2[nH]ccc12 (centres unmarked) [pindolol] | 92%

Source: patent US10376481B2, “Compounds and methods for inhibiting NHE-mediated antiport in the treatment of disorders associated with fluid retention or salt overload and gastrointestinal tract disorders” (ARDELYX, INC, priority 2012, dated 2019)
